We go through 113 compounds from a melting point compilation (Tetko et al.).

As to `O=Cc1ccc(N2CCCC2)cn1`, the melting point lay within 101 to 102 °C.

`N#CN=CNc1ccccc1` showed a melting point of 138 to 141 °C.

In turn, `COc1cccc2cc(C(=O)O)c(=O)oc12` had a melting point of 214 to 216 °C.

In turn, `COC(=O)c1nc(Cl)c(N)nc1N` displayed a melting point of 212 °C.

Turning to `CN(C)c1ccc(/C=C(/C#N)c2nc3ccccc3c(=O)[nH]2)cc1`, the melting point is 308 to 309 °C.

The compound `OCc1ccc(N2CCOCC2)nc1` displayed a melting point of 74 to 76 °C.

`C[N+](C)(C)CC(=O)[O-]` showed a melting point of 301 °C.

Consider `CCCCC(CC)C(=O)O` (stereo not drawn), for which the melting point was -59 °C.

`Nc1ccccc1-c1cc2ccccc2[nH]1` yielded a melting point of 153 °C.

Take `CC(=O)N1CCc2cccc(N)c21`: the melting point lay in the range of 157 to 160 °C.

In turn, `Fc1ccc(I)cn1` came in with a melting point of 32 °C.

With `O=C(O)c1cnc(Cl)c(Br)c1`, the melting point was determined as 172 °C.

`Nc1c(F)ccc(Cl)c1F` displayed a melting point of 47 °C.

Compound `N#CCc1ccccc1CC#N` displayed a melting point of 59 °C.

In turn, `N#Cc1ccc(N)cc1C#N` had a melting point of 181 °C.

Consider `CC(=O)c1cc(-c2ccc(Cl)cc2)oc1C`, for which the melting point fell in the range of 114 to 115 °C.

`CC(C)(CO)C(O)C(=O)NCCCO` (racemic): the melting point was determined as 68 °C.

In turn, `CC(=O)Oc1nn(-c2ccccc2)cc1Br` registered a melting point of 82 to 85 °C.

Regarding `O/N=C1\C(c2ccccc2)=Nc2ccccc21`, the melting point is 260 °C.

On to `Cn1c(=O)c(C2=NNC(=O)C2=Cc2ccccn2)c(O)c2ccccc21`, for which the melting point came out at 292 °C.

`COC(=O)c1ccc2ccccc2c1` came in with a melting point of 77 °C.

`COc1cc(C(=O)c2cccc(C)c2)c([N+](=O)[O-])cc1OC` returned a melting point of 121 °C.

`Cc1cn(C2CCC(CO)O2)c(=O)[nH]c1=O` (stereo not drawn) yielded a melting point of 156 °C.

In turn, `CNC(C)=CC(=O)OC` returned a melting point of 62 to 68 °C.

As to `CC(=O)Oc1nc(CCc2ccccc2)nn1-c1ccccc1`, the melting point was 109 °C.

Take `CCOC(=O)C1=C(C)NC(=O)NC1c1ccc(O)c(OC)c1` (stereo not drawn): the melting point is 190 °C.

As for `Brc1ccc(Oc2c(Br)cc(Br)cc2Br)c(Br)c1`, the melting point was 97 to 98 °C.

With `CN(C(=S)Cl)c1ccc(Cl)cc1`, the melting point is 76 to 78 °C.

In turn, `CCOc1ccc([N+](=O)[O-])cc1N` yielded a melting point of 96.5 °C.

On to `CCCCCCCC(=O)CC`, for which the melting point worked out at 2.5 °C.

Turning to `COc1ccc(C)cc1O`, the melting point lay in the range of 37 to 39 °C.

`N#Cc1c(F)cccc1Cl` registered a melting point of 58 °C.

On to `CC(C)(C)C(CCC(=O)O)CC(=O)O` (stereo not drawn), for which the melting point is 114 to 117 °C.

Turning to `CC1(C)OC(=O)C2(CC2)C(=O)O1`, the melting point came out at 65 °C.

Regarding `Cc1ccc(S(=O)(=O)N(C)Cc2ccc(N)cc2)cc1`, the melting point was 155 °C.

`CC(=O)CS(=O)(=O)c1ccccc1` returned a melting point of 55 to 59 °C.

In the case of `CC(C)c1cc(C(C)C)c(-c2ccccc2P(C2CCCCC2)C2CCCCC2)c(C(C)C)c1`, the melting point was 185 °C.

For `C=C(C)C1(O)C2OC(=O)C1C1(O)C3OC3C3(CO3)C1(C)C2O` (stereo not drawn), the melting point is 225 °C.

In turn, `COc1ccc(CN2CCc3ccccc3C2)cc1O` displayed a melting point of 129 °C.

`O=[N+]([O-])c1cccnc1` returned a melting point of 40 °C.

The compound `CC(C)(C)C(C)(C)O` displayed a melting point of 17 °C.

Consider `CC(C)(C)OC(=O)N1CCC[C@@H]1C(=O)O`, for which the melting point was in the range of 133 to 135 °C.

`N#Cc1cc(Cl)ccc1O` returned a melting point of 165 to 168 °C.

As for `CC(CCCO)C1CCC2C3CCC4CCCCC4(C)C3CCC12C` (stereo not drawn), the melting point is 130 °C.

The compound `Nc1c(C(F)(F)F)cc(Cl)nc1Cl` showed a melting point of 50 to 51 °C.

`O=C(O)c1ccc(-n2ccc(C(F)(F)F)n2)cc1` gave a melting point of 189 to 190 °C.

Compound `O=C(Oc1c(F)c(F)c(F)c(F)c1F)c1cc(C(F)(F)F)ccc1N1CCOCC1` returned a melting point of 91 to 93 °C.

On to `Cc1cc(C)c2c(c1C)C(=O)C2`, for which the melting point was found to be 73 °C.

Compound `CC1(C)OC(C)(C(OC(=O)c2ccc(Br)cc2)C2CCCCC2)CCC1C(=O)O` (stereo not drawn) gave a melting point of 111 °C.

As to `Cc1ccc(NC(=O)NC(C)(C)c2ccccc2)cc1`, the melting point worked out at 203 °C.

In the case of `O=C1CCC(c2ccc(NC(=O)Nc3ccccc3)cc2)=NN1`, the melting point fell in the range of 335 to 338 °C.

Turning to `Cn1c(=O)c(C2=NNC(=O)C2=C2C(=O)Nc3ccccc32)c(O)c2ccccc21`, the melting point worked out at 279 °C.

In turn, `OCc1ccc(-c2ncccn2)cc1` displayed a melting point of 76.5 to 77.5 °C.

Regarding `C=C1C(=O)C23C4CC5C(C)(C)CCC(=O)C5(C(=O)O4)C2C(=O)CC1C3O` (stereo not drawn), the melting point was determined as 250 °C.

Consider `CC1CCCC(O)C1` (stereo not drawn), for which the melting point is -5.5 °C.

In turn, `CCCCCCCCSCCCCCCCC` showed a melting point of 0.5 °C.

`NC(CS(=O)(=O)c1ccccc1)=NO` yielded a melting point of 162 °C.

In turn, `Oc1cc(Cl)c(Cl)c(Cl)c1Cl` displayed a melting point of 116 °C.

For the compound `COc1c(OC)c(OC(C)=O)c2cc(Br)ccc2c1OC(C)=O`, the melting point is 102 °C.

Consider `O=C(O)c1c(F)c(F)c(F)c(C(=O)O)c1F`, for which the melting point was 209 to 213 °C.

`Fc1cccc(F)c1CBr` gave a melting point of 51 to 55 °C.

In turn, `COC(=O)c1cc(Br)ccc1N` displayed a melting point of 72 °C.

With `Clc1ccc(Nc2ncnc3c2cnn3-c2ccccc2)cc1`, the melting point lay in the range of 218 to 220 °C.

For `CC(=O)OCC1OC(C#N)=CC(OC(C)=O)C1OC(C)=O` (stereo not drawn), the melting point was 112 to 115 °C.

`CCCCNC(=O)NS(=O)(=O)c1ccc(N)cc1`: the melting point came out at 144 °C.

With `CC1CC(=Cc2ccccc2)C(=O)C(=Cc2ccccc2)C1` (stereo not drawn), the melting point was 100 to 101 °C.

As for `O=C(O)Cc1ccc(F)c(F)c1`, the melting point amounted to 49 °C.

`CCOC(=O)c1c(C=O)c(C)n(-c2ccccc2)c1C` showed a melting point of 78 to 81 °C.

`C[C@H](C(=O)O)c1ccccc1` registered a melting point of 29 to 32 °C.

As to `COc1ccc2c(c1)c(CC(=O)O)c(C)n2C(=O)C=Cc1ccccc1`, the melting point was 170 °C.

Take `O=C1OC(=O)[C@H]2[C@@H]1[C@@H]1C3C=CC([C@H]21)[C@H]1C(=O)OC(=O)[C@@H]31`: the melting point lay in the range of 355 to 357 °C.

On to `Nc1ncnc2c1ncn2[C@H]1C=C[C@@H](CO)O1`, for which the melting point was in the range of 189 to 191 °C.

As for `O=[N+]([O-])c1ccc(Oc2c(Cl)cccc2Cl)c(Cl)c1`, the melting point fell in the range of 136 to 138 °C.

For `Nc1ccc(C(=O)c2ccccc2)cc1[N+](=O)[O-]`, the melting point fell in the range of 140 to 143 °C.

For the compound `O=C1NCN(c2ccccc2)C12CCNCC2`, the melting point is 183 to 185 °C.

`O=C(CBr)c1ccccc1[N+](=O)[O-]` gave a melting point of 55 °C.

The compound `Cc1ccc(C)c(O)c1C` showed a melting point of 58 °C.

In turn, `CC(=O)c1cccc(S(=O)(=O)Cl)c1` came in with a melting point of 43 °C.

Consider `CC(COc1ccccc1)NC(C)C(O)c1ccc(O)cc1` (stereo not drawn), for which the melting point was 102 °C.

On to `COc1ccc(OC)c(F)c1`, for which the melting point came out at 25 °C.

Regarding `CNc1nnc(S)s1`, the melting point fell in the range of 190 to 193 °C.

Take `CC1=NCCS1`: the melting point was -101 °C.

For the compound `CC(=O)c1ccc(Oc2ccc(Cl)cc2)cc1Cl`, the melting point lay within 54 to 56 °C.

Take `COc1ccc(Cl)cc1C#N`: the melting point stood at 100 °C.

Take `COc1ccc(N2C(=O)C3ON=C(C(=O)c4ccco4)C3C2=O)cc1` (stereo not drawn): the melting point worked out at 137 °C.

As to `C#CCCCCCCCCC`, the melting point is -25 °C.

`Cc1cc2c(o1)-c1c(oc3c(Br)cc(Br)cc13)CCC2C` (stereo not drawn) gave a melting point of 121 °C.

Take `BrCc1nc2ccccc2nc1CBr`: the melting point fell in the range of 150 to 154 °C.

Compound `CC(C)(C)c1ccc(C2CCC3(CC2)Cc2ccc(O)cc2C3)cc1` (stereo not drawn) gave a melting point of 156 °C.

As for `Fc1ccc(C2(Cn3cncn3)OC2c2ccccc2Cl)cc1` (stereo not drawn), the melting point amounted to 137 °C.

For `CSc1nn(CO)c(=S)s1`, the melting point lay within 72 to 74 °C.

In turn, `COc1ccc2c(c1)CCC2=O` had a melting point of 109 °C.

As for `O=C(Cc1ccc(Oc2ccccc2)cc1)c1ccccc1`, the melting point was in the range of 58.3 to 59.9 °C.

On to `COC(=O)c1sccc1NN`, for which the melting point is 69 to 71 °C.

In turn, `Cc1ccc(NC(=O)CC(C)c2ccc(C)cc2)cc1` (stereo not drawn) yielded a melting point of 105 °C.

On to `Cc1onc(-c2c(Cl)cccc2Cl)c1CO`, for which the melting point is 107 to 109 °C.

Turning to `Cc1nnc(Sc2ccc(C=O)o2)n1C`, the melting point was 143 to 147 °C.

Compound `O=C1CCc2cc(Cl)ccc21` came in with a melting point of 94 °C.

On to `CC1CN1` (stereo not drawn), for which the melting point is -65 °C.

`CCCCC(/C=C1\C(=O)C2(C)CCC1C2(C)C)(/C=C1\C(=O)C2(C)CCC1C2(C)C)C(=O)OCC` (stereo not drawn) displayed a melting point of 175 °C.

Take `S=C(Nc1ccccc1)c1ccccc1`: the melting point worked out at 102 °C.

`O=S(=O)(Oc1ccc(Cl)cc1Cl)c1ccccc1` showed a melting point of 45.5 °C.

On to `c1ccc(COc2cccc3[nH]ccc23)cc1`, for which the melting point amounted to 60 °C.

With `C#CCCCCCCCCCCCCC`, the melting point came to 10 °C.

`COc1c(C(C)C)oc2cc3oc(=O)ccc3cc12` returned a melting point of 85 °C.

As for `COc1ccc(C(=O)Cl)cc1OC1CCCC1`, the melting point fell in the range of 46 to 47 °C.

The compound `CCOC(=O)Nc1ccc(C)cc1[N+](=O)[O-]` showed a melting point of 64 to 65 °C.

In turn, `O=C(O)c1cc(S(=O)(=O)Cl)ccc1O` displayed a melting point of 168 to 170 °C.

The compound `CCCCCCN(CCCCCC)C(=O)COC(=O)c1ccccc1` gave a melting point of 162 °C.

`COc1c(O)ccc2c1C(=O)N1CCc3cc4c(cc3[C@@H]1C2)OCO4` registered a melting point of 209 °C.

As to `CC(=O)/C=C/c1cc(N(C)C)ccc1Cc1ccc(N(C)C)cc1I`, the melting point was 164 °C.

Compound `ON=C(C1CC1)C1CC1` registered a melting point of 76.5 °C.

`CNc1ccccc1C(=O)O` returned a melting point of 180 °C.

For orientation: melting point means the temperature, or range, at which the solid turns liquid.
